From US20240352069A1, “SYNTHETIC PEPTIDE, AND COSMETIC COMPOSITION OR PHARMACEUTICAL COMPOSITION AND APPLICATION THEREOF” (SHENZHEN WINKEY TECHNOLOGY CO., LTD., priority 2021, published 2024)

Assays:
[1] = system: TNF-α; assay: Anti-inflammatory repair experiment, LPS-stimulated RAW264.7 cells, ELISA TNF-α; assay type: cell-based, mouse
From the text: (§1) Mouse mononuclear macrophages (RAW264.7 cells).
(§2) Peptide (2), tested at a concentration of 100 ppm.
(§3) • a) Take RAW264.7 cells in good exponential growth phase, add 0.25% trypsin digestion solution, digest to make adherent cells fall off, count 1-4×10^6 cells/mL, and make cell suspension; • b) Appropriately dilute 100,000 cells/well of cell suspension and inoculate it on a 6-well plate, and establish an LPS-stimulated inflammation model when the cells reached about 80% confluent. Set blank control group (control), LPS group, dexamethasone group (DXM), polypeptide group. Add 1000 μL culture medium to the blank control group; add 200 ng/mL LPS to the LPS group, add culture medium to 1000 μL; add 200 ng/mL LPS and 50 ng/mL dexamethasone to the dexamethasone group, add culture medium to 1000 μL; add 200 ng/mL LPS and peptide (2) to the polypeptide group, add culture medium to 1000 μL (final test concentration of peptide is 100 ppm). […] The OD value of each well was sequentially measured at 450 nm with a microplate reader within 15 min after the reaction was terminated. […]

[2] = system: IL-8; assay: Anti-inflammatory repair experiment, LPS-stimulated RAW264.7 cells, ELISA IL-8; assay type: cell-based, mouse; conditions: 100 ppm, 200 ng/mL LPS, 48 h, vs LPS group
From the text: as §1, §2, §3

[3] = system: IL-6; assay: Anti-inflammatory repair experiment, LPS-stimulated RAW264.7 cells, ELISA IL-6; assay type: cell-based, mouse; conditions: 100 ppm, 200 ng/mL LPS, 48 h, vs LPS group
From the text: as §1, §2, §3

[4] = system: HaCaT cells; assay: Scratch test (cell migration); assay type: cell-based, human; conditions: 24 hours after scratch; peptides 100 ppm, EGF 50 U/mL; vs normal control group
Procedure: Human keratinocytes (HaCaT) were purchased from the Kunming Cell Bank of the Type Culture Collection Committee of the Chinese Academy of Sciences.
The cryopreserved HaCaT cells were cultured, subcultured to about 5 passages according to the ratio of 1:2, and the cells with better growth were selected as the experimental objects. Cells were seeded in a 12-well plate at a density of 200,000 cells/well, with 2 mL of cell suspension in each well. After the cells adhered to the wall, the medium was replaced with 0.5% to 1% fetal bovine serum to maintain the cells for 24 hours to synchronize them. change. Scratch with a sterilized pipette tip, wash off the dropped cells with PBS, add the sample to be tested, continue to incubate in a 37° C., 5% CO2 incubator, and place it under an optical microscope after 24 hours to analyze the wound healing area.
The cell scratch migration test can reflect the proliferation and repair ability of the cells.

[5] = system: NIH3T3 cells; assay: UVB light damage repair experiment (MTT), NIH3T3; assay type: cell-based, mouse; conditions: UVB irradiated, each dose of 12.5 ppm-100 ppm, 24 hours
Procedure: (§4) Human keratinocytes (HaCaT) were purchased from the Kunming Cell Bank of the Type Culture Collection Committee of the Chinese Academy of Sciences, and mouse skin fibroblasts (NIH3T3) were purchased from the Shanghai Cell Bank of the Type Culture Collection Committee of the Chinese Academy of Sciences.
Take cells in good exponential growth phase, add 0.25% trypsin digestion solution, digest to make adherent cells fall off, count 1×10^5-4×10^5 cells/mL, and make cell suspension.
Cells were seeded into 96-well plates at 10,000 cells/well, and the UVB photodamage model was established when the cells reached about 80% confluent. […]
After 24 hours, add 22 μL of 5 mg/mL MTT to each well, place in an incubator and incubate for 4 hours, discard the original solution, and add 150 μL/well of DMSO. After 5 minutes, use a microplate reader to read the reference OD values at 490 nm and 630 nm wavelengths.
By establishing a UVB light-damaged cell model, administering 24 hours after ultraviolet light irradiation, and using the MTT method to detect cell proliferation activity, the ability of the peptide of the present invention to repair light-damaged cells was evaluated.

[6] = system: HaCaT cells; assay: Cell proliferation experiment (MTT), HaCaT; assay type: cell-based, human; conditions: 24 hours
From the text: as §4
• a) Take cells in good condition in exponential growth phase, add 0.25% trypsin digestion solution, digest to make adherent cells fall off, count 1-4×10^5 cells/mL, and make cell suspension; • b) Appropriately dilute 2000 cells/well of the cell suspension and inoculate it on a 96-well plate at 200 μL/well, and culture it in a constant temperature CO2 incubator for 24 hours. • c) Change the medium, add the sample to be tested, 20 μL/well, and incubate for 24 hours; • d) Add the MTT reagent into the 96-well plate, 20 μL/well, and react in the incubator for 4 hours; • e) Aspirate the supernatant, add DMSO, 150 μL/well, and shake on a plate shaker for 5 minutes; • f) After 5 minutes, use a microplate reader to read the reference OD values at 490 nm and 630 nm wavelengths, and calculate the cell viability:
MTT method is a method to detect cell survival and growth. The measured OD value is directly proportional to cell activity. The larger the OD value, the higher the cell activity.

H-Ala-Pro-Phe-Arg-Met-Gly-Ile-Met-Thr-Thr-Asn-OH (H-APFRMGIMTTN-OH) [Peptide (2)]
anti-inflammatory effect compared with dexamethasone ([1]; 100 ppm vs 50 ng/mL dexamethasone, TNF-α, IL-6 and IL-8): equivalent to the positive drug dexamethasone | expression of TNF-α ([1]; 100 ppm, 200 ng/mL LPS, 48 h, vs LPS group): significantly down-regulated | expression of IL-8 [2]: significantly down-regulated | expression of IL-6 [3]: significantly down-regulated | scratch spacing (proliferation and migration) [4]: shorter than that of the normal control group | activity of photodamaged NIH3T3 cells (MTT) [5]: can significantly increase NIH3T3 cell activity | impact on the activity of HaCaT cells compared among peptides (1)-(5) ([6]; 12.5-100 ppm): greater impact on the activity of HaCaT cells | effect on the activity of HaCaT cells (MTT) ([6]; 12.5 ppm-100 ppm, vs PBS blank control): could both improve the activity of HaCaT cells, promote their proliferation
